Experimental data published in patent EP2474552A1, “New saccharide mimics and their use as inhibitors of angiogenesis and metastasis formation” (Deutsches Krebsforschungszentrum, priority 2011, dated 2012).
Where two headings read alike, the source gives them in different places.

Key:
WM-115 cells = assay: Wound healing assay (cell migration); format: cell-based, human; design: key to inhibit the cell migration of WM-115 cells: (-) means that the cell migration was not inhibited and that the wound healed; (+) means a slight inhibition, which slows the trend to heal; (++) means that the cell migration was inhibited, since only some cells were visible in the wound; (+++) means the absolute inhibition of cell migration; conditions: for concentration at which the migration of human melanoma cells is inhibited: summary of Table 1
Experimental: The compounds of the present invention were analyzed by means of a migration-assay, called "wound healing assay", that determines the inhibition-rate of the compounds on human melanoma cell line migration. Another migration assay, the so-called the Oris™ cell migration assay, is also applicable to examine the cell migration inhibitory effects of the compounds of the present invention. The used melanoma cells lines were WM-115 and WM-266-4, which are accepted in-vitro model cell systems. The human cell line WM-115 is derived from the primary tumor of a vertical growth phase (VGP) melanoma, whereas the cell line WM-266-4 is derived from the corresponding cutaneous metastasis. The "wound healing assay" is applicable to examine the cell migration inhibitory effects of the compounds of the present invention, which is described in further detail in the Examples. Furthermore, the "wound healing assay" is based on the fact that when wounded or scratched, cell monolayers respond to the disruption of cell-cell contacts and an increased concentration of growth factors at the wound margin by healing the wound through a combination of proliferation and migration, according to Yarrow, J.C., et al., BMC Biotechnol., 2004: 4, 21-29. In order to investigate the cell migration an intact cell monolayer is wounded with a pipette tip.
The wound healing assay has been carried out according to description as disclosed in Yarrow, J.C., et al., BMC Biotechnol., 2004: 4, 21-29. For carrying out the wound healing assay, 2 x 10^5 cells were grown in one well of a 12-well-plate under cell culture specific conditions for 24 h. After 24 h, a wound has been scratched in the confluently grown cell monolayer with a 100 µl pipette-tip. Detached cells were removed by washing with serum-free medium and new media with the respective compounds to be tested were supplemented with varying amounts. The cells were incubated under cell culture specific conditions and always the same section was photographed after 2, 4, 8 and 24 under the phase contrast microscope. The untreated cells healed the wound through a combination of proliferation and migration after 24 h.
The following table (Table 1) is a summary of the results obtained by carrying out the above described wound healing assay with varying amounts of compounds of the present invention to inhibit the cell migration of WM-115 cells, wherein (-) means that the cell migration was not inhibited and that the wound healed, (+) means a slight inhibition, which slows the trend to heal, (++) means that the cell migration was inhibited, since only some cells were visible in the wound, and (+++) means the absolute inhibition of cell migration. The abbreviation "n.d." means "not determined".

WM-266-4 cells [1] = assay: Adhesion assay with WM-266-4 cells on fibronectin; format: cell-based, human
Experimental: Microtiter plates with 96 wells were coated with 0.5 µg of fibronectin in 50 µl over night at 4° C and blocked with 200 µl adhesion buffer (1% BSA in PBS without Ca^2+/Mg^2+). WM-266-4 cells were pre-incubated with the test compounds at the respective concentrations in serum free medium for 60 min in a shaker (600 rpm) at 37° C. Afterwards, 4 x 10^4 cells in 100 µl were withdrawn and added into each well and incubated for 1 h at 37° C. Medium and non-adherent cells were aspirated and adherent cells were fixed in 4% formalin in PBS. The plates were washed with 0.01 M borate buffer (Stock-solution: 20 mM boric acid, 100 mM sodium tetraborate; pH 8.5; working solution: 0.01 M dilution in H2O) and 50 µl of 0.01 % methylene blue in borate buffer were added, wherein the cells were stained for 10 min at room temperature. The plates were extensively washed with water and air-dried. The air-dried plates were incubated for 45 min with 200 µl/well extraction buffer (a mixture of 0.1 N HCl and absolute EtOH (1:1, vol/vol)), wherein the adherent cells were quantified in an ELISA-reader, which read the extinction at 651 nm.
The human melanoma cells adhered to the fibronectin coated cell culture dishes. This adhesion is a prerequisite for growth of circulating cells such as occurs when these metastasize to sites distant from the tumor. The compounds described herein can inhibit such adhesion to the extracellular matrix protein fibronection or laminin to various degrees.

human melanoma cells [2] = assay: Vitality test with Trypanblue; conditions: cells of the migration assay
murine B16F10 cells = conditions: cited from earlier work
WM-266-4 cells [3] = conditions: WM-266-4, at 5 mM; cited from earlier work
[4] = test system: matrix-metalloproteinase-2 (MMP-2); conditions: cited from earlier work
WM-115 [5] = conditions: WM-115, 5 mM; cited from earlier work
human WM-115 cells = conditions: cited from earlier work
WM-266-4 = conditions: WM-266-4, 2.5 mM; cited from earlier work
WM-115 [6] = conditions: WM-115, at 5 mM; cited from earlier work
human melanoma cells [7] = test system: human melanoma cells
HBMEC-60 cells = assay: Adhesion assay with HBMEC cells (TNF-α stimulated) on laminin; format: cell-based, human
Experimental: Microtiter plates with 96 wells coated with the extracellular matrix component type I collagen, fibronenctin or laminin were used. HBMEC-60 cells which had been pre-incubated with the tumor necrosis factor (TNF-α, 40 ng/ml) for 24 hrs were incubated with the test compounds at the respective concentrations in serum free medium for endothelial cells (Promozell, Heidelberg, Germany) without growth factors for 30 min in 1.5 mL microfuge tubes (Eppendorf, Hamburg, Germany). Afterwards, 4 x 10^4 HBMEC-60 cells in 100 µl were withdrawn and added into each well. The plates were incubated at 37° C for 30 min and subsequently washed twice with PBS (with CaCl2 und MgSO4). Then, the adherent cells were fixed, washed and stained with methylene blue, the dye released and the extinction read as described above for the experiments with the melanoma cells.
Adhesion of endothelial cells to extracellular matrix proteins like laminin is a prerequisite for angiogenesis.

vitality test with Trypanblue (human melanoma cells [7])	Compound	inhibit the cell migration of WM-115 cells (WM-115 cells; Concentration 1 mM)	inhibit the cell migration of WM-115 cells (WM-115 cells; Concentration 2.5 mM)	inhibit the cell migration of WM-115 cells (WM-115 cells; Concentration 5mM)	inhibit the cell migration of WM-115 cells (WM-115 cells; Concentration 0.1 mM)	concentration at which the migration of human melanoma cells is inhibited (WM-115 cells)	inhibition of the adhesion of WM-266-4 cells to fibronectin (WM-266-4 cells [1]; concentration of 5 mM)	also measured
	OC[C@H]1O[C@@H](OCc2cocc2CF)[C@H](O)[C@@H](O)[C@H]1O [GFF, 3-(β-D-galactopyranosyl-oxymethyl)-4-(fluoro-methyl)-furan]	+	+++	+++				inhibition at 100 µM (WM-266-4 cells [1]; Homo sapiens, WM 266-4, concentration of 0.1 mM): 34%; inhibition at 5000 µM (WM-266-4 cells [1]; Homo sapiens, WM 266-4, concentration of 5 mM): 62%; vitality test with Trypanblue (human melanoma cells [2]): cells were intact
	O=S(=O)(O)OCc1cocc1CO[C@@H]1O[C@H](CO)[C@H](O)[C@H](O)[C@H]1O [GSF, 3-β-D-galactopyranosyl-oxymethyl-4-sulfato-methyl-furan]	-	+	+++	-	greater than or equal to 2.5 mM	26%	inhibition of adhesion to fibrinogen (murine B16F10 cells; at 20 mM or rather 10 mM): completely inhibits; inhibition of adhesion to fibronectin (murine B16F10 cells; at 40 mM): completely inhibits; inhibition of the adhesion of WM-266-4 cells to fibronectin (WM-266-4 cells [1]; concentration of 0.1 mM): 8%; inhibition of migration (WM-266-4 cells [3]): inhibited; activation of the matrix-metalloproteinase-2 (MMP-2) [4]: decreased; inhibition of cell migration into a wound (WM-115 [5]): no detectable migration; inhibition of adhesion to fibrinogen (human WM-115 cells; at 20 mM or rather 10 mM): completely inhibits; inhibition of adhesion to fibronectin (human WM-115 cells; at 40 mM): completely inhibits; inhibition of cell migration into a wound (WM-266-4): no detectable migration; inhibition of migration (WM-115 [6]): inhibited
cells were intact	O=S(=O)(O)OCc1cocc1CO[C@@H]1O[C@H](COS(=O)(=O)O)[C@H](O)[C@H](O)[C@H]1O [GSSF, 3-(6-sulfato-β-D-galactopyranosyl-oxymethyl)-4-(sulfatomethyl)-furan]	++	+++	+++	++	0.1 mM		inhibition of HBMEC-60 cell adhesion to laminin (HBMEC-60 cells; 10 mM, compared with 10 mM GSF): better inhibitor; inhibition of endothelial cell adhesion to laminin (HBMEC-60 cells; concentrations of 0.1, 0.5, 1 and 5 mM): significantly inhibited
cells were intact	O=S(=O)(O)OCc1cocc1CO[C@@H]1O[C@H](CO)[C@@H](O)[C@H](O)[C@H]1O [GluSF, 3-(β-D-glucopyranosyl-oxymethyl)-4-(sulfatomethyl)-furan]	+	+	+++	-	1 mM	79%	
